Test system: Male C57BL/6J mice
Assay: Energy expenditure by indirect calorimetry, administration at rest 2
Type: in vivo
Settings: mice fasted 1 hour, oral, hydrolysates 1.0 mg/g body weight, MKP peptide 0.4 μg/g body weight, randomized crossover, FIG. 3
Procedure: Male C57BL/6J mice as laboratory animals were divided into the following four groups: rest group, casein hydrolysate administration group, MKP peptide administration group, and whey protein hydrolysate administration group. The mice were fasted for 1 hour. Subsequently, a casein hydrolysate and a whey protein hydrolysate each in an amount of 1.0 mg/g body weight and a MKP peptide in an amount of 0.4 μg/g body weight were orally administered, and energy expenditure was measured. The number of mice used in the experiment was n=12 in each group, and a randomized crossover test was employed.
Incidentally, as the casein hydrolysate and the whey protein hydrolysate, those prepared in <1>, (1) to (2), above were used, and, as the MKP peptide, a synthetic peptide was purchased from Peptide Institute and used. Energy expenditure for 60 minutes after administration was determined.
As compared with the rest group, in all the casein hydrolysate administration group, MKP peptide administration group, and whey protein hydrolysate administration group, the level of energy expenditure was higher.

H-Met-Lys-Pro-OH [MKP peptide]
average energy expenditure for 60 minutes after administration compared with the rest group: higher
